ChEMBL document CHEMBL1156602, “Synthesis and antiviral properties of some polyphenols related to Salvia genus” (Bioorg Med Chem Lett, 2008)

How the values were obtained:
[1] = target: T1, Human immunodeficiency virus type 1 integrase (Human immunodeficiency virus 1, UniProt Q7ZJM1); test: Inhibition of HIV1 integrase by overall integration assay
[2] = target: T1, Human immunodeficiency virus type 1 integrase; test: Inhibition of HIV1 integrase strand transfer activity
[3] = target: T1, Human immunodeficiency virus type 1 integrase; test: Inhibition of HIV1 integrase in presence of Mn2+
[4] = test system: Human immunodeficiency virus 1; test: Antiviral activity against HIV1 in MT4 cells assessed as inhibition of virus-induced cytopathic effect by MTT assay; assay type: functional, organism-based; details: Human immunodeficiency virus 1, MT4
[5] = Cytotoxicity against human MT4 cells by MTT assay; assay type: cell-based
[6] = Cytotoxicity against human MT2 cells after 48 hrs; assay type: cell-based; details: read-out: LD50
[7] = test system: Human immunodeficiency virus 1; test: Antiviral activity against HIV1 LAI in MT2 cells assessed as inhibition of virus-induced cytopathic effect; assay type: functional; details: Human immunodeficiency virus 1, LAI, read-out: ED50 (the source's name)
[8] = target: T1, Human immunodeficiency virus type 1 integrase; test: Inhibition of HIV1 integrase catalyzed reactions

T1 sequence (Q7ZJM1 whole entry): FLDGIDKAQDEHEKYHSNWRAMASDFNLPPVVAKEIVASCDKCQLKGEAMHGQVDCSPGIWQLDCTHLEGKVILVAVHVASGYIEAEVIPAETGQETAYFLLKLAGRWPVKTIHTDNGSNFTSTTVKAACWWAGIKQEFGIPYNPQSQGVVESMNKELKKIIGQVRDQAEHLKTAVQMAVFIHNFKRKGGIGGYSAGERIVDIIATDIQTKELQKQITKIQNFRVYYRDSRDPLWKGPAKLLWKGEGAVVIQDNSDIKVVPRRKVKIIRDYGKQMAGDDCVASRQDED

Row | SMILES | IC50 [1] | IC50 [2] | IC50 [3] | EC50 [4] | CC50 [5] | CC50 at 48 h [6] | EC50 [7] | IC50 [8]
1 | O=C(O)/C=C/c1ccc(O)c(O)c1 [CAFFEIC ACID] | 2.8 µM | 24 µM | 2.8 µM | – | – | – | – | –
2 | O=C(O)/C=C/c1ccc(O)c2c1C1C(=O)c3cc(O)c(O)cc3C1O2 (racemic) | 0.15 µM | 0.3 µM | – | > 23.3 µM | 23.3 µM | – | – | –
3 | O=C(O)/C=C/c1ccc(O)c(O)c1/C(=C/c1ccc(O)c(O)c1)C(=O)O | 0.56 µM | 0.73 µM | – | > 4.5 µM | 4.5 µM | – | – | –
4 | O=C(O)/C=C/c1ccc(O)c(O)c1CC(=O)O | 1.34 µM | 1.09 µM | – | > 44 µM | 44 µM | – | – | –
5 | O=C(/C=C/c1ccc(O)c(O)c1)O[C@@H](C(=O)O)[C@@H](OC(=O)/C=C/c1ccc(O)c(O)c1)C(=O)O [CICHORIC ACID] | – | – | – | – | – | 700 µM | – | –
6 | O=C(/C=C/c1ccc(O)c(O)c1)O[C@@H]1C[C@](O)(C(=O)O)C[C@@H](OC(=O)/C=C/c2ccc(O)c(O)c2)[C@H]1O | – | – | – | – | – | 300 µM | 1.9 µM | 0.64 µM
